In PMC6941823, “A dispensable paralog of succinate dehydrogenase subunit C mediates standing resistance towards a subclass of SDHI fungicides in Zymoseptoria tritici” (PLoS Pathogens, 2019):

The compounds below were run against C_A84I-SQR (SDHC_A84I), IPO323_Flu21 mitochondria (Zymoseptoria tritici, UniProt F9X9V6+F9XH52+O42772, A84I) (assay: Succinate-quinone (SQR) SDHI sensitivity assay on purified mitochondria, IPO323_Flu21). Conditions: mitochondria of UV mutant IPO323_Flu21; mean of three ± SD.
Assay type: biochemical
Procedure: Succinate-ubiquinone oxidoreductase (SQR) inhibition assays were performed on mitochondrial extracts from a panel of strains that were (i) either carrying a unique C-subunit encoding gene (ZtSDHC1, ZtSDHC1_A84I or Zt-SDHC3), or (ii) carrying two C-subunit encoding genes ZtSDHC1 and ZtSDHC3 (Table 1).
Biomass production, mitochondrial extraction and purification were performed as described in [14]. Succinate: ubiquinone/DCPIP sensitivity tests were performed as described in [14] with minor modification. The different mitochondrial suspensions were adjusted to similar initial velocity (1 OD595nm hour^-1) and inhibitor concentrations ranged between 0.047nM and 50μM with uniform 4x dilution steps (11 concentrations + DMSO control). Calculated absorbance slopes (OD/min) were used for IC50 calculations using GraphPad Prism 6.07 software non-linear curve fitting against log inhibitor concentrations.
O=C(Nc1ccccc1-c1ccc(Cl)cc1)c1cccnc1Cl [Boscalid] showed an IC50 of 62 ± 19.2 nM.
CC1=C(C(=O)Nc2ccccc2)SCCO1 [Carboxin] gave an IC50 of 1150 ± 153 nM.
Work on Cn1cc(C(=O)NCCc2ccc(Cl)cc2Cl)c(C(F)F)n1 [Compound 1] yielded an IC50 of 2570 ± 239 nM.
For C[C@@H](Cc1ccc(Cl)cc1Cl)NC(=O)c1cn(C)nc1C(F)F [Compound 2], the IC50 was 780 ± 157 nM.
CON(C(=O)c1cn(C)nc1C(F)F)[C@@H](C)Cc1ccc(Cl)cc1Cl [Compound 3] gave an IC50 of 28 ± 7.3 nM.
For O=C(NCCc1ncc(C(F)(F)F)cc1Cl)c1ccccc1C(F)(F)F [Fluopyram], the IC50 was 1440 ± 354 nM.
With Cc1cc(OC(C)C)ccc1C(=O)C(C)(C)NC(=O)c1sccc1C [Isofetamid] the IC50 was 21400 ± 4550 nM.
CC(C)CC(C)c1sccc1NC(=O)c1cn(C)nc1C(F)(F)F (stereo not drawn) [Penthiopyrad] was tested, and the IC50 was 4.6 ± 1.7 nM.
With CON(C(=O)c1cn(C)nc1C(F)F)[C@@H](C)Cc1c(Cl)cc(Cl)cc1Cl [Pydiflumetofen] the IC50 was 2 ± 0.4 nM.
